Laboratory results as given in PubChem BioAssay AID540332 (The Scripps Research Institute Molecular Screening Center, 2011).
The source made the active and inactive calls. The rule behind the calls is not given here.

Tests used:
Test in all cases: selectivity profile across receptors and CYP450s – biochemical, Ricerca HitProfilingScreen, CYP450, set 2, selectivity assay for S1P4 agonist project, profiling panel (AID 540332)
[1] = molecular target: Muscarinic acetylcholine receptor M2 (Homo sapiens) (UniProt P08172); conditions: at 30 µM, stronger effect = higher value
Chain of Muscarinic acetylcholine receptor M2 (Homo sapiens) (P08172 whole entry, looked up): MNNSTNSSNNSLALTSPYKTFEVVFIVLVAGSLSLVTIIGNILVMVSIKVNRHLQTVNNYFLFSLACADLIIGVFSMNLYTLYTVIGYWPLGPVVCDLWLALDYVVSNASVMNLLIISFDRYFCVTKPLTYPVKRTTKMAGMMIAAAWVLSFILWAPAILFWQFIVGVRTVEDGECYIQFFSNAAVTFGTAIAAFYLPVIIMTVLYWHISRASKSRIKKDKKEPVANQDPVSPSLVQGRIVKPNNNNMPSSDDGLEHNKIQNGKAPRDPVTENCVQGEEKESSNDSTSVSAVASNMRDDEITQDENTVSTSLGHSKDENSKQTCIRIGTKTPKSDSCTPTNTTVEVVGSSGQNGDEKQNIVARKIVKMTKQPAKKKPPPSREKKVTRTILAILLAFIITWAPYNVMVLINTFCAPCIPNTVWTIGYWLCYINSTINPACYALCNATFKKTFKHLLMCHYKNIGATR

[2] = tested on: Calcium Channel L-Type, Dihydropyridine; conditions: at 30 µM; stronger effect = higher value
Glutamate, NMDA = conditions: Phencyclidine; at 30 µM; stronger effect = higher value
Adenosine A2A = conditions: at 30 µM; stronger effect = higher value
[3] = molecular target: Beta-2 adrenergic receptor (Homo sapiens) (UniProt P07550); conditions: Adrenergic beta2; at 30 µM; stronger effect = higher value
Chain of Beta-2 adrenergic receptor (Homo sapiens) (P07550 whole entry, looked up): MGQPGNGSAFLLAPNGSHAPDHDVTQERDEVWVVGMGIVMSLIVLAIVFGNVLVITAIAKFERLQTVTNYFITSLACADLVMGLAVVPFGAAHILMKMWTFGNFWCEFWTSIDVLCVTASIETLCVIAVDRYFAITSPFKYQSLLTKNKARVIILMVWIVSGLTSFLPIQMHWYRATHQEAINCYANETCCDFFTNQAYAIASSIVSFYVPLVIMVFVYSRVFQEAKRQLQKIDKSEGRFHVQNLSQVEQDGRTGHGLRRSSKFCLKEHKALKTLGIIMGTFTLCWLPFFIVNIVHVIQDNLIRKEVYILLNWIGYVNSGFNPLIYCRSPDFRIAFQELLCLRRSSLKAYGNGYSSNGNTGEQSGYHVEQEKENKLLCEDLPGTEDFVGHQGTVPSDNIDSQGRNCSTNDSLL

Sigma 1 = conditions: at 30 µM; stronger effect = higher value
Histamine H1 = conditions: at 30 µM; stronger effect = higher value
[4] = molecular target: Cytochrome P450 2D6 (Homo sapiens) (UniProt P10635); conditions: CYP450 2D6; at 30 µM; stronger effect = higher value
Chain of Cytochrome P450 2D6 (Homo sapiens) (P10635 whole entry, looked up): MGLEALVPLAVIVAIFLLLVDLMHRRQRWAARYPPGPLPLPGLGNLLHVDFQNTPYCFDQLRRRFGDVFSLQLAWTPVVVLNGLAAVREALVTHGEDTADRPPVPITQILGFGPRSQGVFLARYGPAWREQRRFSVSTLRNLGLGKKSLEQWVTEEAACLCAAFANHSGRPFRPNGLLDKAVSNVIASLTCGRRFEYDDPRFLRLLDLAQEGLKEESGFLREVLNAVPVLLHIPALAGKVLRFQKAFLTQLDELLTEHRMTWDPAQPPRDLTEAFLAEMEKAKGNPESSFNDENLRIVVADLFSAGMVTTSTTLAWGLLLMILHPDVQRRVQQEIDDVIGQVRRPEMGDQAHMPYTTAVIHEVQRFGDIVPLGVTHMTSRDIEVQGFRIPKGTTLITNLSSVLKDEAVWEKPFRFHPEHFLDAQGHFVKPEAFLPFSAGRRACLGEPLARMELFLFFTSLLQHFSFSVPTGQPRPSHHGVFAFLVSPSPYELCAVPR

CYP450 2C19 = conditions: at 30 µM; stronger effect = higher value
[5] = molecular target: Muscarinic acetylcholine receptor M3 (Homo sapiens) (UniProt P20309); conditions: at 30 µM, stronger effect = higher value
Chain of Muscarinic acetylcholine receptor M3 (Homo sapiens) (P20309 whole entry, looked up): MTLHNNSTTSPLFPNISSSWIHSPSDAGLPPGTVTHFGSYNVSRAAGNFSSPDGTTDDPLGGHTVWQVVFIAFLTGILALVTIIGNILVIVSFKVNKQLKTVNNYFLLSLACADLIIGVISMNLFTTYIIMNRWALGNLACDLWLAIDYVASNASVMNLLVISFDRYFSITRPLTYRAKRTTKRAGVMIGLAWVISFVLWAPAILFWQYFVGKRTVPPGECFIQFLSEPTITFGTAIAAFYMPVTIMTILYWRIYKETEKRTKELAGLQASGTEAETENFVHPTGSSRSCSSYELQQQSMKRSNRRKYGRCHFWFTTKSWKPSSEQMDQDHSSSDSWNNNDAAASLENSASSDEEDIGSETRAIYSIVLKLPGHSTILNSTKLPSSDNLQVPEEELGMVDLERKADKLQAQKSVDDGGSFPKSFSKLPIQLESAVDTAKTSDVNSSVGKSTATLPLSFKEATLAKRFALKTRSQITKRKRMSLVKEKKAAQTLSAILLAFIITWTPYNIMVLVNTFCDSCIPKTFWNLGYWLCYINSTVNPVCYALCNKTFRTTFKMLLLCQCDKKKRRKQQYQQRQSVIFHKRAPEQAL

Dopamine D2 = conditions: at 30 µM; stronger effect = higher value
Sodium Channel, Site 2 = conditions: at 30 µM; stronger effect = higher value
[6] = molecular target: Voltage-gated inwardly rectifying potassium channel KCNH2 (Homo sapiens) (UniProt Q12809); conditions: Potassium Channel hERG; at 30 µM; stronger effect = higher value
[7] = tested on: Norepinephrine Transporter (NET); conditions: at 30 µM; stronger effect = higher value
Adenosine A1 = conditions: at 30 µM; stronger effect = higher value
[8] = molecular target: Cytochrome P450 3A4 (Homo sapiens) (UniProt P08684); conditions: CYP450 3A4; at 30 µM; stronger effect = higher value
Chain of Cytochrome P450 3A4 (Homo sapiens) (P08684 whole entry, looked up): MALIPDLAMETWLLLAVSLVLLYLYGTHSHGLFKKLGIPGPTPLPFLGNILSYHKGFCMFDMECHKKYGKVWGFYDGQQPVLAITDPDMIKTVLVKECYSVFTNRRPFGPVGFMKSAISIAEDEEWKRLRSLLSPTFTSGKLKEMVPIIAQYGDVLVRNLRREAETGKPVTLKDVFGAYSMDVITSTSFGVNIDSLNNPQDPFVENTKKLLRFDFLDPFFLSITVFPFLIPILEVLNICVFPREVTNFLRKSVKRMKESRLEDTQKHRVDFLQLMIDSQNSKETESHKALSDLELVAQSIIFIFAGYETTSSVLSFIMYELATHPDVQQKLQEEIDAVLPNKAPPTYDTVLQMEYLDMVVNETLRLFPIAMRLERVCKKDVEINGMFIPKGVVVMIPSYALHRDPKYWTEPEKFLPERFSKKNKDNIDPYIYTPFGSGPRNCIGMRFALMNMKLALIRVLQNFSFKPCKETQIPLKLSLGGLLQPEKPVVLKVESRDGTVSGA

[9] = molecular target: D(1A) dopamine receptor (Homo sapiens) (UniProt P21728); conditions: Dopamine D1; at 30 µM; stronger effect = higher value
Chain of D(1A) dopamine receptor (Homo sapiens) (P21728 whole entry, looked up): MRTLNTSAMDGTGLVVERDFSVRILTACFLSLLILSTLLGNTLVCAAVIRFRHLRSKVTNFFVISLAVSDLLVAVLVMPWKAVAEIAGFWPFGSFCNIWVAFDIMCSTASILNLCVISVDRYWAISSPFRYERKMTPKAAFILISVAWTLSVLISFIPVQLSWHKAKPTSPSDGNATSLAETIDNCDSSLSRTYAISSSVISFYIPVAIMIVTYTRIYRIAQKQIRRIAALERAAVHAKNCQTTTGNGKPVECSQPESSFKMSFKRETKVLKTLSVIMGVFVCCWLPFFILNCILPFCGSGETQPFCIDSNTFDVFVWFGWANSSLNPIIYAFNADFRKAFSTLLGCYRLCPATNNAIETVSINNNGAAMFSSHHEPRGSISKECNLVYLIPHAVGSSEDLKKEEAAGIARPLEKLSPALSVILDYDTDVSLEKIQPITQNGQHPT

Cannabinoid CB1 = conditions: at 30 µM; stronger effect = higher value
[10] = molecular target: Cytochrome P450 2C9 (Homo sapiens) (UniProt P11712); conditions: CYP450 2C9; at 30 µM; stronger effect = higher value
Chain of Cytochrome P450 2C9 (Homo sapiens) (P11712 whole entry, looked up): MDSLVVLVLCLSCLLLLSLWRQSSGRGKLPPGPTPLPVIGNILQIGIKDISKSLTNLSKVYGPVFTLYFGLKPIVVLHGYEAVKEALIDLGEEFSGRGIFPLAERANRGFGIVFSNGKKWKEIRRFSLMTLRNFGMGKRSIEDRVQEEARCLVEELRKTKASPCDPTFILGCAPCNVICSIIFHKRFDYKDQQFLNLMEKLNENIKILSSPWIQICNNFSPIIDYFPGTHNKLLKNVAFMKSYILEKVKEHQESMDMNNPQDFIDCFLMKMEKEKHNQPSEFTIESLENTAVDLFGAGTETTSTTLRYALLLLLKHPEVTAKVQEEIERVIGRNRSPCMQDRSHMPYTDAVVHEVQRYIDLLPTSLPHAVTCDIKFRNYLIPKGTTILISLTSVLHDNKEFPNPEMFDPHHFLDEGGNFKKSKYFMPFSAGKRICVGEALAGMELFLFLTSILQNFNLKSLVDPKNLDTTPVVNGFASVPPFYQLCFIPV

Adrenergic alpha1B = conditions: at 30 µM; stronger effect = higher value
[11] = molecular target: 5-hydroxytryptamine receptor 2B (Homo sapiens) (UniProt P41595); conditions: Serotonin (5-Hydroxytryptamine) 5-HT2B; at 30 µM; stronger effect = higher value
Chain of 5-hydroxytryptamine receptor 2B (Homo sapiens) (P41595 whole entry, looked up): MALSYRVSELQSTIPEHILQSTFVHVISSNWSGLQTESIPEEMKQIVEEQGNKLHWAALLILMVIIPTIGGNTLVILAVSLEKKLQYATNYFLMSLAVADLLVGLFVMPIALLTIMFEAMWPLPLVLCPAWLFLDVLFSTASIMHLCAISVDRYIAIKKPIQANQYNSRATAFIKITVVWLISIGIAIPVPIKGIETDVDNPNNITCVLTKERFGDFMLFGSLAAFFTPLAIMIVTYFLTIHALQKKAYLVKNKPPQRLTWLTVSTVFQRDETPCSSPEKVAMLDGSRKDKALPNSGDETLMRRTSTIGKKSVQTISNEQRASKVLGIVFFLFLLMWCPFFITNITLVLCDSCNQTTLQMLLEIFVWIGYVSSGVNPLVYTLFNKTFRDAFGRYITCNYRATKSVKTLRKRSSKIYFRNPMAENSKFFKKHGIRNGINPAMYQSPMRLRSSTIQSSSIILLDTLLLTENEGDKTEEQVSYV

[12] = tested on: Alpha-2A adrenergic receptor (Homo sapiens) + Histamine H1 receptor (Homo sapiens) + Mu-type opioid receptor (Homo sapiens); conditions: at 30 µM; stronger effect = higher value
Adrenergic alpha1A = conditions: at 30 µM; stronger effect = higher value
GABAA = conditions: Central, at 30 µM, stronger effect = higher value
Prostanoid EP4 = conditions: at 30 µM; stronger effect = higher value
[13] = molecular target: Cytochrome P450 1A2 (Homo sapiens) (UniProt P05177); conditions: CYP450 1A2; at 30 µM; stronger effect = higher value
Chain of Cytochrome P450 1A2 (Homo sapiens) (P05177 whole entry, looked up): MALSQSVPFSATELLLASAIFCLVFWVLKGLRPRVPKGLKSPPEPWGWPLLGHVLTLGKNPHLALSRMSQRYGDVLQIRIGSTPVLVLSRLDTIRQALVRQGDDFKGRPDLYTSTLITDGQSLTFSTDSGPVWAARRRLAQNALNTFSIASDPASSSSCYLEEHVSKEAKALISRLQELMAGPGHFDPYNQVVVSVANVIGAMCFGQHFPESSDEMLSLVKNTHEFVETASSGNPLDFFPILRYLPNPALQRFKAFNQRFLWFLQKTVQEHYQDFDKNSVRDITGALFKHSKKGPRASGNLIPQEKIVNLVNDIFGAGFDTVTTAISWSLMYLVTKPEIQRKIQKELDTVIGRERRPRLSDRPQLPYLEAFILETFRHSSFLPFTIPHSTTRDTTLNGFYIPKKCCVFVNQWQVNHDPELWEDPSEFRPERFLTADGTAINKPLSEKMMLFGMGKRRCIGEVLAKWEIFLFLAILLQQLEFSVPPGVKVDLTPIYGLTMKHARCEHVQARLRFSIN

[14] = molecular target: Alpha-2A adrenergic receptor (Homo sapiens) (UniProt P08913); conditions: Adrenergic alpha2A; at 30 µM; stronger effect = higher value
Chain of Alpha-2A adrenergic receptor (Homo sapiens) (P08913 whole entry, looked up): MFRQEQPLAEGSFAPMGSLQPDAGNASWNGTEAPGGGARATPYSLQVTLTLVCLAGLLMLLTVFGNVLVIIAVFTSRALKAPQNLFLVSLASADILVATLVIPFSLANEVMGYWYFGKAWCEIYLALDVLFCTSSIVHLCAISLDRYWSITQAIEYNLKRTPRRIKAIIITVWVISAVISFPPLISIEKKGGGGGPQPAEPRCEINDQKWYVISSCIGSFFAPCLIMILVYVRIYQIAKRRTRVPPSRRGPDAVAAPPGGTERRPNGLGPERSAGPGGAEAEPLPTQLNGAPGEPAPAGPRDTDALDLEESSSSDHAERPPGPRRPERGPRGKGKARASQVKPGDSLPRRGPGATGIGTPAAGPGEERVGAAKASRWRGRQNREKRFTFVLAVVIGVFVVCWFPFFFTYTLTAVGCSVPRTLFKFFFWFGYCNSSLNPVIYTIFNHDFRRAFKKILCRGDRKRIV

Nicotinic Acetylcholine = conditions: at 30 µM; stronger effect = higher value
Opiate mu (OP3, MOP) = conditions: at 30 µM; stronger effect = higher value
Adrenergic beta1 = conditions: at 30 µM; stronger effect = higher value

Measured: inhibition

COCCN=C1S/C(=C\c2cc(C)n(-c3ccc(F)cc3F)c2C)C(=O)N1C
inactive: [1] 13% | Glutamate, NMDA 6% | Adenosine A2A 26% | [3] 6% | Sigma 1 2% | [4] 8% | CYP450 2C19 -24% | [5] 23% | Dopamine D2 12% | [6] 29% | Adenosine A1 29% | [9] 27% | [10] -28% | Adrenergic alpha1B 42% | [12] 11% | Adrenergic alpha1A 40% | GABAA; Flunitrazepam -8% | GABAA; Muscimol 3% | Prostanoid EP4 29% | [13] 14% | [14] 40% | Adrenergic beta1 39%
active: [2] 64% | Histamine H1 52% | Sodium Channel, Site 2 59% | [7] 71% | [8] 56% | Cannabinoid CB1 65% | [11] 66% | Nicotinic Acetylcholine -53% | Opiate mu (OP3, MOP) 69%
